Results as given in ChEMBL document CHEMBL6096675 (J Med Chem, 2025).
Active and inactive are the calls of the source. The rule behind the calls is not given here.

What was measured:
[1] = Plasma concentration in SCID mouse xenografted with human NCI-H838 cells at 10 mg/kg, iv measured after 24 hrs by LC-MS/MS analysis; format: ADME, organism-based
[2] = Plasma concentration in SCID mouse xenografted with human NCI-H838 cells at 10 mg/kg, iv measured after 96 hrs by LC-MS/MS analysis; format: ADME, organism-based
[3] = Plasma concentration in SCID mouse xenografted with human NCI-H838 cells at 10 mg/kg, iv measured after 48 hrs by LC-MS/MS analysis; format: ADME, organism-based
[4] = Plasma concentration in SCID mouse xenografted with human NCI-H838 cells at 10 mg/kg, iv measured after 168 hrs by LC-MS/MS analysis; format: ADME, organism-based; conditions: in vivo, iv, 10 mg/kg, 168 h
[5] = Drug uptake in tumor of human NCI-H838 cells xenografted SCID mouse model at 10 mg/kg, iv measured after 168 hrs by LC-MS/MS analysis; format: ADME, organism-based, Neoplasm; conditions: read-out: Drug uptake
[6] = target: SWI/SNF-related matrix-associated actin-dependent regulator of chromatin subfamily A member 2 (Homo sapiens, UniProt P51531); experiment: Inhibition of human SMARCA2 by TR-FRET assay
[7] = Antiproliferative activity against human SMARCA4-deficient NCI-H1568 cells assessed as inhibition of cell growth measured after 7 days by WST-8 assay; format: functional; conditions: NCI-H1568, 168 h, time 7 day
[8] = Antiproliferative activity against human SMARCA4-deficient NCI-H1693 cells assessed as inhibition of cell growth measured after 7 days by WST-8 assay; format: functional; conditions: NCI-H1693, 168 h, time 7 day
NCI-H1792 [9] = experiment: Antiproliferative activity against human SMARCA4-wild type NCI-H1792 cells assessed as inhibition of cell growth measured after 7 days by WST-8 assay; format: functional; conditions: NCI-H1792, 168 h, time 7 day
SK-MEL-5 = experiment: Antiproliferative activity against human SMARCA4-deficient SK-MEL-5 cells assessed as maximal inhibition of cell growth measured after 7 days by WST-8 assay relative to control; format: functional; conditions: time 7 day
[10] = Antiproliferative activity against human SMARCA4-deficient NCI-H1944 cells assessed as maximal inhibition of cell growth measured after 7 days by WST-8 assay relative to control; format: functional; conditions: time 7 day
NCI-H1792 [11] = experiment: Antiproliferative activity against human SMARCA4-wild type NCI-H1792 cells assessed as maximal inhibition of cell growth measured after 7 days by WST-8 assay relative to control; format: functional; conditions: time 7 day
SK-MEL-28 = experiment: Antiproliferative activity against human SMARCA4-wild type SK-MEL-28 cells assessed as maximal inhibition of cell growth measured after 7 days by WST-8 assay relative to control; format: functional; conditions: time 7 day
[12] = Antiproliferative activity against human […] NCI-H1975 cells assessed as maximal inhibition of cell growth measured after 7 days by WST-8 assay relative to control; format: functional; conditions: time 7 day
[13] = Cmax in mouse at 1 mg/kg, iv; format: ADME, organism-based; conditions: in vivo
[14] = AUC (0 to 24hrs) in mouse at 1 mg/kg, iv; format: ADME, organism-based; conditions: in vivo
[15] = Volume of distribution of steady state in mouse at 1 mg/kg, iv; format: ADME, organism-based; conditions: in vivo, read-out: Vdss
[16] = AUC (0 to 24hrs) in rat at 1 mg/kg, iv; format: ADME, organism-based; conditions: in vivo
[17] = Volume of distribution of steady state in rat at 1 mg/kg, iv; format: ADME, organism-based; conditions: in vivo, read-out: Vdss
[18] = Plasma concentration in mouse xenografted with human H838 cells at 10 mg/kg, iv single dose measured after 6 hrs by LC-MS/MS analysis; format: ADME, organism-based, NCI-H838
[19] = Drug uptake in tumor of mouse xenografted with human H838 cells at 10 mg/kg, iv single dose measured after 6 hrs by LC-MS/MS analysis; format: ADME, organism-based, Neoplasm, NCI-H838; conditions: read-out: Drug uptake
[20] = Drug uptake in tumor of mouse xenografted with human H838 cells at 10 mg/kg, iv single dose measured after 168 hrs by LC-MS/MS analysis; format: ADME, organism-based, Neoplasm, NCI-H838; conditions: read-out: Drug uptake
[21] = Plasma concentration in mouse xenografted with human MV4-11 cells at 30 mg/kg, iv single dose measured after 96 hrs by LC-MS/MS analysis; format: ADME, organism-based
[22] = Plasma stability in mouse plasma assessed as half life; format: ADME, cell-free
[23] = Plasma stability in rat plasma assessed as half life; format: ADME, cell-free
Cytochrome P450 2C8 = target: T1, Cytochrome P450 2C8 (Homo sapiens, UniProt P10632); experiment: Inhibition of CYP2C8 (unknown origin); format: ADME
T1 sequence (P10632 whole entry): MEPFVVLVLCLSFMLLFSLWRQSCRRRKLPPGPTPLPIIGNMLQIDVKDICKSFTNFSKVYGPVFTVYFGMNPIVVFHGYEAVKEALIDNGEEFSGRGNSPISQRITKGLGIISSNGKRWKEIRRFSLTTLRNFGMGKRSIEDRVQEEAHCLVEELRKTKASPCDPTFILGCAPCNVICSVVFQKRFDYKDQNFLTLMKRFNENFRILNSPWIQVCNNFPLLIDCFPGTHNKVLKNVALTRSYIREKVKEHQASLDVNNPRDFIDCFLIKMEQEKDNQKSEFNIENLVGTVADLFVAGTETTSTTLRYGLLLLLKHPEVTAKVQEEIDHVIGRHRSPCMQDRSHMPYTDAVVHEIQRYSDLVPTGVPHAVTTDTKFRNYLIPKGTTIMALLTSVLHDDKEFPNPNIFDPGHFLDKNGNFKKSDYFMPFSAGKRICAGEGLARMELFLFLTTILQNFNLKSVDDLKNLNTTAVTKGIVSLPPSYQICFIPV

Cytochrome P450 2C9 = Cytochrome P450 2C9 (Homo sapiens, UniProt P11712); experiment: Inhibition of CYP2C9 (unknown origin); format: ADME
Cytochrome P450 2D6 = Cytochrome P450 2D6 (Homo sapiens, UniProt P10635); experiment: Inhibition of CYP2D6 (unknown origin); format: ADME
Cytochrome P450 2B6 = target: T2, Cytochrome P450 2B6 (Homo sapiens, UniProt P20813); experiment: Inhibition of CYP2B6 (unknown origin); format: ADME
T2 sequence (P20813 whole entry): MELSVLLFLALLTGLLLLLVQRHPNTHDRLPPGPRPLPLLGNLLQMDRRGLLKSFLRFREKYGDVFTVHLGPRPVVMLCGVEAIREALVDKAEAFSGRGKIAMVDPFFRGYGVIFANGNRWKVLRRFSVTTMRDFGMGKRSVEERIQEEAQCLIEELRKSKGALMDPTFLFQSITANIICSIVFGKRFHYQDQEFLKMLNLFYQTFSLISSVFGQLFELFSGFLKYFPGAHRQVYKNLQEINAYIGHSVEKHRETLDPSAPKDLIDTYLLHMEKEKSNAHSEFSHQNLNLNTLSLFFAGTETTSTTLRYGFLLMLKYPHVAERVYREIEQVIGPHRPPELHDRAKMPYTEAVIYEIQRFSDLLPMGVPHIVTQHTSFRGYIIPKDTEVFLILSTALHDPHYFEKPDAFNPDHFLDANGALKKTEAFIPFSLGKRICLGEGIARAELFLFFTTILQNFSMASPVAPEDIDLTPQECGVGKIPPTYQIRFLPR

NCI-H838 = experiment: In vivo anti-tumor activity against human NCI-H838 cells xenografted in SCID mouse assessed as assessed as inhibition of tumor growth at 10 mg/kg, iv treated for 3 weeks measured after treatment stop; format: functional, organism-based

Chain of SWI/SNF-related matrix-associated actin-dependent regulator of chromatin subfamily A member 2 (P51531 whole entry): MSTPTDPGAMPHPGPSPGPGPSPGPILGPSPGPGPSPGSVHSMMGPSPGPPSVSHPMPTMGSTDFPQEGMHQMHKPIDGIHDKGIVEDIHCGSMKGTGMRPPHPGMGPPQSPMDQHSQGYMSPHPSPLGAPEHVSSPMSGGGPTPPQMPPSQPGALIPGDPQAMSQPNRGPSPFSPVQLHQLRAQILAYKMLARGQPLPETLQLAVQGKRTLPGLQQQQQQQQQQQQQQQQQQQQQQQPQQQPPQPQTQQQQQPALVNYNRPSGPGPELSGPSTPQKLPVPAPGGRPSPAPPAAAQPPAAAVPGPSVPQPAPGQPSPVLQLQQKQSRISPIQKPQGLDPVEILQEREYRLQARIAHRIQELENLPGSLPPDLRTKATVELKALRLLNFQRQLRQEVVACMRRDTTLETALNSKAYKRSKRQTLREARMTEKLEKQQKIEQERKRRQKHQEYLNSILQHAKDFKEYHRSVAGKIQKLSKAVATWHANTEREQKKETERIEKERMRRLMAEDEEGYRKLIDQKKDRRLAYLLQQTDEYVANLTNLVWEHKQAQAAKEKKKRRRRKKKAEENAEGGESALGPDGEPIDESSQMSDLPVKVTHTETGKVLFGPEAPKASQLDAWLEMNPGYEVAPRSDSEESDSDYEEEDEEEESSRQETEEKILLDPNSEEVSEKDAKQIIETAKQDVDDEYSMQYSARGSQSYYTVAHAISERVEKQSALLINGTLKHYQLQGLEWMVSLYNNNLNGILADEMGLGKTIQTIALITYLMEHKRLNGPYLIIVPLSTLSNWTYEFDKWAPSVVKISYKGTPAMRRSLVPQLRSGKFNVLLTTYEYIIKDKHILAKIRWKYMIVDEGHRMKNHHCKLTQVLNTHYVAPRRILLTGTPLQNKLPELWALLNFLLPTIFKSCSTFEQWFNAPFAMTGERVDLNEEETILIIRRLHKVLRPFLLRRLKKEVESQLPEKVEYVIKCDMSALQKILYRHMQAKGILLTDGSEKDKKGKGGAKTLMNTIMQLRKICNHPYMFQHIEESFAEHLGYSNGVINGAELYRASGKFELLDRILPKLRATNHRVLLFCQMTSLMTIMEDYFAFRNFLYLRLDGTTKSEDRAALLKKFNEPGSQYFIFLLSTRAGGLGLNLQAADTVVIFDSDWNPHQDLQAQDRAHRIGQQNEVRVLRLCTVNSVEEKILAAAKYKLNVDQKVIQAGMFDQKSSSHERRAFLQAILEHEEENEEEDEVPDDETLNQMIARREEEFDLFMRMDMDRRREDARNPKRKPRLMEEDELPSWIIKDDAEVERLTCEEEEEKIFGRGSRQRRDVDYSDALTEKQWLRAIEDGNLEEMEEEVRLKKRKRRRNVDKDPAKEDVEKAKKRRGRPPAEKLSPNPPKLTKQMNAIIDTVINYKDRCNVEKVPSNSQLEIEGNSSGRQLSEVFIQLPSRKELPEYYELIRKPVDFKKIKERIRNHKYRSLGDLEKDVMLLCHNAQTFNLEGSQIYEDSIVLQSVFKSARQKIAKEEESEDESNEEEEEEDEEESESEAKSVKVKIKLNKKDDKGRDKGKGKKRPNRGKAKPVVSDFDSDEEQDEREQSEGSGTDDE
Chain of Cytochrome P450 2C9 (P11712 whole entry): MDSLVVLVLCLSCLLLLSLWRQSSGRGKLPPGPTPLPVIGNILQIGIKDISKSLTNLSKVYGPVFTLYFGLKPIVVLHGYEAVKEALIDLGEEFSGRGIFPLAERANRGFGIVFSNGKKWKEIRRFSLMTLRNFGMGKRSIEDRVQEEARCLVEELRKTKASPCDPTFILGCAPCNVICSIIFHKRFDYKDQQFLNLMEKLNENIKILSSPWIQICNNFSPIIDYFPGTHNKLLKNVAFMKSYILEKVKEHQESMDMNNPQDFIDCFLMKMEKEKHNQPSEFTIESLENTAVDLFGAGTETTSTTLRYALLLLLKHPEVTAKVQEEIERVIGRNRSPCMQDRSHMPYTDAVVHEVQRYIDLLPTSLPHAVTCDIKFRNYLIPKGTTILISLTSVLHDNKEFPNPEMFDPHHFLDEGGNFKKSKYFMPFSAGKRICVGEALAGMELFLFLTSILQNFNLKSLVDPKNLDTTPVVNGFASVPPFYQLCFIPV
Chain of Cytochrome P450 2D6 (P10635 whole entry): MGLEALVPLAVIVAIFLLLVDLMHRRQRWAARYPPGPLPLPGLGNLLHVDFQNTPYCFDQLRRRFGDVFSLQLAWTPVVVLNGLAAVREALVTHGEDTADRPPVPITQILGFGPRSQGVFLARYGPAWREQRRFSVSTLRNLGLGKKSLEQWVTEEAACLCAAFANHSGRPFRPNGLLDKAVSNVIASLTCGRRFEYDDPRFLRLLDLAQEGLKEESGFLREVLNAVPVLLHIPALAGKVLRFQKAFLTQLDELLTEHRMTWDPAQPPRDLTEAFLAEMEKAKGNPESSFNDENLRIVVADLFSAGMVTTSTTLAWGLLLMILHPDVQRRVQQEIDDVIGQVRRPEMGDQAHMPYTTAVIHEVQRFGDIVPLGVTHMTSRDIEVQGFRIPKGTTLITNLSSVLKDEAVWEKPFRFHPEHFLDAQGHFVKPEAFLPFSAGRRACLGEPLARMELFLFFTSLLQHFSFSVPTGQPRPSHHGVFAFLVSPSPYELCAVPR

Cc1ncsc1-c1ccc([C@H](CN2CCOCC2)NC(=O)[C@@H]2C[C@@H](O)CN2C(=O)[C@@H](n2cc([C@H]3CC[C@H](CN4CCC(c5ccc6c(c5)-n5c(nc(=O)c7c(Cl)cccc75)C65CCCCC5)CC4)CC3)nn2)C(C)(C)C)cc1
concentration at 24 h [1]: 50 ng/mL | concentration at 96 h [2]: 6.8 ng/mL | concentration at 48 h [3]: 15 ng/mL | Cp [4]: Below_limit_of_detection | concentration at 168 h [5]: 169 ng/mL | IC50 [6]: 42.2 nM | GI50 [7]: 2.2 nM | GI50 [8]: 4.8 nM | GI50 (NCI-H1792 [9]): > 10 µM | Imax (SK-MEL-5): 95% | Imax [10]: 71% | Imax (NCI-H1792 [11]): 80% | Imax (SK-MEL-28): 55% | Imax [12]: 65% | Cmax [13]: 2230 ng/mL | AUC(0-t) [14]: 1740 ng·h/mL | Vd [15]: 1.9 L/kg | AUC(0-t) [16]: 753 ng·h/mL | Vd [17]: 0.9 L/kg | concentration at 6 h [18]: 585 ng/mL | concentration at 6 h [19]: 608 ng/mL | concentration at 168 h [20]: 169 ng/mL | concentration at 96 h [21]: 56 ng/mL | half-life [22]: > 120 min | half-life [23]: > 120 min | IC50 (Cytochrome P450 2C8): > 100 µM | IC50 (Cytochrome P450 2C9): > 100 µM | IC50 (Cytochrome P450 2D6): > 100 µM | IC50 (Cytochrome P450 2B6): > 100 µM | Activity (NCI-H838): inactive
